Laboratory results from patent US5635401A, “Method to detect hormone treatment in animals” (Cornell Research Foundation, Inc., priority 1995, dated 1997).

B1: MDGI/FABP: mammary derived growth inhibitor / fatty acid binding protein, a 15 kDa protein of the milk fat globule membrane (protein, UniProt P10790 2-133, looked up)
Fatty acid-binding protein, …: VDAFVGTWKLVDSKNFDDYMKSLGVGFATRQVGNMTKPTTIIEVNGDTVIIKTQSTFKNTEISFKLGVEFDETTADDRKVKSIVTLDGGKLVHVQKWNGQETSLVREMVDGKLILTLTHGTAVCTRTYEKQA
B2: bST: recombinant bovine somatotropin, growth hormone approved for use in dairy cows (protein, UniProt P01246 27-217, looked up)
Somatotropin: AFPAMSLSGLFANAVLRAQHLHQLAADTFKEFERTYIPEGQRYSIQNTQVAFCFSETIPAPTGKNEAQQKSDLELLRISLLLIQSWLGPLQFLSRVFTNSLVFGTSDRVYEKLKDLEEGILALMRELEDGTPRAGQILKQTYDKFDTNMRSDDALLKNYGLLSCFRKDLHKTETYLRVMKCRRFGEASCAF

Tests used:
[1] = system: protein kinase activity of the resident proteins present in the MFGM; experiment: Auto-phosphorylation of MFGM proteins with γ 32P-ATP, detected by SDS-PAGE and autoradiography; type: biochemical, bovine; settings: for effect on the phosphorylation pattern: valinomycin with or without KCl, ionophore A23187 + CaCl2
Procedure: MFGM and skim milk membranes (SMM) were incubated with γ ^32 P-ATP in the presence of protein phosphatase inhibitors (vanadate, 8-glycerophosphate, phosphotyrosine, phosphoserine, phosphothreonine, p-nitrophenyl phosphate) and 5 mM MgCl, and/or 3 mM MnCl, led to phosphorylation of proteins, as detected by SDS-PAGE and autoradiography. In the bovine MFGM, […] main radiolabelled protein bands were detected and ranged from 13-200 kDa (13, 15, 21, 24, 32, 35, 39, 45, 51, 66, 75, 100, 130, 200). In the human MFGM, 8 bands were indentified and ranged between 20-150 kDa five main bands corresponding to 51, 65, 66, 100, and 130, and three weaker bands corresponding to 21, 24 and 27 kDa. Phosphorylation of bovine skim milk membrane (SMM) proteins was observed only after the addition of 0.1% Triton X-100 to membranes. In this case, the three-four main radioactive bands were detected in a zone between 32 and 35 kDa, and one band in the 75 kDa range.
The presence of phosphatase inhibitors in the kinase media was necessary to see maximal levels of protein phosphorylation. The phosphorylation reaction would not take place when Mg^2+ and Mn^2+ were substituted for Ca^2+. Genistein, an inhibitor of protein tyrosine kinase activity caused approximately 50% inhibition of phosphorylation.
It is believed that the observed phosphorylation was a result of Mg^2+ or Mn^2+ --dependent protein kinase activity of the resident proteins present in the MFGM.

[2] = system: bovine mammary and human breast cancer cells; settings: including bovine mammary and human breast cancer cells; cited from earlier work
[3] = system: fatty acid binding protein (FABP/MDGI); experiment: FABP phosphorylation in MFGM of milk from cows treated with bST (15 kDa band intensity on electrophoresis gel, FIG. 1); type: in vivo, cow; settings: for phosphorylated 15 kDa protein (FABP) relative to non-bST treated control cow: FIG. 1
Procedure: The test for determining whether an animal has been treated with bST is performed by: 1) isolating the milk fat globule membranes (MFGM); 2) phosphorylating the MFGM; 3) and detecting the levels of phosphorylation of FABP in MFGM.
Milk fat globule membranes (MFGM) are prepared from the cream of fresh bovine milk. Between 100-200 ml fresh bovine milk from cows administered bST are collected. The cream is obtained by centrifugation of milk at 3,000×g for 20 min. It is then suspended in two volumes of 10 mM phosphate buffer, pH 7.4, containing 0.9% NaCl (PBS), and homogenized in a Warring blender for 45 sec. The homogenate is centrifuged at 100,000×g for 90 min. The MFGM pellet is washed once by resuspension in an initial volume of PBS, followed by centrifugation at 100,000×gfor 90 min. No cells (somatic cells) are found in the MFGM, as determined by light microscopy. MFGM may be either used immediately or stored at -80' C. for future use.
FABP/MDGI is involved in the binding and transport of milk fatty acids.
FIG. 1 is a bar graph showing intensity of a band on an electrophoresis gel showing FABP phosphorylation at the 15 kDalton level. The non-bST treated cow was used as a control. A sample from a milk bulk tank containing milk from cows treated with bST has only about a quarter of the phosphorylated 15 kDa protein.

| Molecule | effect on the phosphorylation pattern [1] | other results |
| --- | --- | --- |
| CNc1ccc2oc(C[C@H]3O[C@@]4(CC[C@H]3C)O[C@H]([C@H](C)C(=O)c3ccc[nH]3)[C@H](C)C[C@H]4C)nc2c1C(=O)O [ionophore A23187] | did not significantly alter |  |
| C(=NC1CCCCC1)=NC1CCCCC1 [DCCD, dicyclohexylcarbodimide] | did not significantly alter |  |
| O=c1c(-c2ccc(O)cc2)coc2cc(O)cc(O)c12 [Genistein] |  | inhibition of phosphorylation ([1]; kinase media with phosphatase inhibitors): approximately 50% |
| CC1OC(OC2CC(O)C3(CO)C4C(O)CC5(C)C(C6=CC(=O)OC6)CCC5(O)C4CCC3(O)C2)C(O)C(O)C1O (stereo not drawn) [Oubain] | did not significantly alter |  |
| C=C1[C@@H]2CC[C@H]3[C@]4(C)C[C@H](O[C@@H]5O[C@H](CO)[C@@H](OS(=O)(=O)O)[C@H](OS(=O)(=O)O)[C@H]5OC(=O)CC(C)C)C[C@@H](C(=O)O)[C@H]4CC[C@]3(C2)[C@H]1O [atractyloside] | did not significantly alter |  |
| N#CC(C#N)=NNc1cccc(Cl)c1 [CCCP, carbonyl-cyanide-m-chlorophenyl hydrazone] | did not significantly alter |  |
| CC(C)[C@@H]1NC(=O)[C@H](C)OC(=O)[C@@H](C(C)C)NC(=O)[C@@H](C(C)C)OC(=O)[C@H](C(C)C)NC(=O)[C@H](C)OC(=O)[C@@H](C(C)C)NC(=O)[C@@H](C(C)C)OC(=O)[C@H](C(C)C)NC(=O)[C@H](C)OC(=O)[C@@H](C(C)C)NC(=O)[C@@H](C(C)C)OC1=O [valinomycin] | did not significantly alter |  |
| B1 |  | growth of various cell types [2]: inhibits the growth |
| B2 |  | levels of phosphorylated MDGI/FABP ([3]; MFGM isolated from cows treated with bST vs non treated cows): significantly reduced; FABP autophosphorylation activity ([3]; cows treated with bST vs non treated cows): weaker; phosphorylated 15 kDa protein (FABP) relative to non-bST treated control cow ([3]; individual cows treated with bST): significant decrease; phosphorylated 15 kDa protein (FABP) relative to non-bST treated control cow ([3]; milk bulk tank sample containing milk from cows treated with bST): about a quarter |
